Source: PubChem BioAssay (NCI)
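Where inhibition never reached the appropriate level, the endpoint shown equals the highest concentration tested. Otherwise, values were interpolated linearly from a five-concentration, 48-hour dose response in 96-well plates. TGI: concentration producing complete growth inhibition.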

Legend:
Experiment in all cases: NCI-60 cell line screen, 48 h
[1] = system: SK-MEL-28 melanoma
[2] = system: CAKI-1 renal
[3] = system: UACC-257 melanoma
[4] = system: SNB-19 CNS
[5] = system: NCI-H460 lung
[6] = system: SF-268 CNS
[7] = system: HT29 colon
[8] = system: UACC-62 melanoma
[9] = system: CCRF-CEM leukemia
[10] = system: NCI/ADR-RES ovarian

| Structure (SMILES) | TGI [1] [µM] | TGI [2] [µM] | TGI [3] [µM] | TGI [4] [µM] | TGI [5] [µM] | TGI [6] [µM] | TGI [7] [µM] | TGI [8] [µM] | TGI [9] [µM] | TGI [10] [µM] |
| --- | --- | --- | --- | --- | --- | --- | --- | --- | --- | --- |
| Oc1ccc(-c2nc3cc(F)ccc3s2)cc1 | 42.8 | 43.9 | 69.6 | > 100 | 48.8 | 74 | 56.7 | 36.4 | > 100 | 42.4 |
| Cc1c2cc[n+](C)cc2c(C)c2c1oc1ccccc12 | 21.8 | 98.3 | 17.9 | 4.27 | 16.7 | 2.71 | > 77.1 | 16.5 | 45.9 | > 100 |
| c1c2c(cc3c1OCO3)-c1cc3ccc4c(c3c[n+]1CC2)OCO4 | > 12.5 | > 12.5 | > 12.5 | > 8.78 | 3.55 | > 12.5 | > 12.5 | > 12.5 | > 12.5 | 1.28 |
| Cc1[nH]n(-c2ccccc2)c(=O)c1C(N(CCc1ccccc1)C1=NCC(C)S1)(C(F)(F)F)C(F)(F)F (stereo not drawn) | 51.2 | > 100 | 56.7 | > 100 | 38.2 | > 100 | > 100 | 24 | 68.7 | 89 |
| CC1CC(Br)C(=O)O1 (stereo not drawn) | > 100 | > 100 | > 100 | > 100 | > 100 | > 100 | > 100 | > 100 | > 100 | > 100 |
| O=C1OC2(OC2c2ccc(Cl)cc2)c2ccccc21 (stereo not drawn) | > 100 | > 100 |  | > 100 | > 100 | > 100 | > 100 | > 100 | > 100 |  |
| CCO[C@]12CCC[C@H]1[C@@H]1C(=O)c3ccccc3C(=O)C1=C(C)O2 | > 100 | > 100 | > 100 | > 100 | > 100 | > 100 | > 100 | > 100 | > 100 | > 100 |
| CSc1ccc(/C=C2\N=C(c3ccccc3)N(/N=C3\C(=O)Nc4ccccc43)C2=O)cc1 | > 100 | > 100 | > 100 | > 100 | > 100 | > 100 | > 100 | > 100 | > 100 | > 100 |
| COc1ccc2c(c1)/C(=C\c1c(Cl)n(-c3ccccc3)c3ccccc13)C(=O)N2 | > 100 | 56.7 | 50.8 | 22.1 | 68.2 | 20.3 | 14.2 | 32.6 | 55.8 | 7.98 |
| COc1cc([N+](=O)[O-])ccc1NC(=O)c1cccc([N+](=O)[O-])c1O | > 100 | 48.8 | 63.7 | > 100 | > 100 | > 100 | > 100 | > 100 | > 100 |  |
| Nc1nc(OCC2CCCCC2)c2[nH]cnc2n1 | 99.2 | 58 | 61.8 | > 100 | > 67.9 | > 100 | 48.5 | > 74.6 | 43.6 | > 100 |
| CC1(C=O)CCC23COC4(CCC5C6(C)CCC(OC7OCC(OC8OC(CO)C(O)C(OC9OC(CO)C(O)C(O)C9O)C8OC8OCC(O)C(O)C8O)C(O)C7OC7OC(CO)C(O)C(O)C7O)C(C)(C)C6CCC5(C)C4(C)CC2O)C3C1 (stereo not drawn) |  | 2.32 |  | 1.09 | 2.55 | 2.47 | 2.07 | 3.17 | 0.789 | 1.05 |
| COC(=O)/C=C1\CCCN1CCc1cc2c(cc1CC#N)OCO2 | > 100 | > 100 | > 100 | > 100 | > 100 | > 100 | > 100 | > 100 | > 100 | > 100 |
| CCOC(=O)Nc1cc2c(c(N)n1)N=C(c1ccc3ccccc3c1)CN2 | > 100 | 36.9 | > 100 |  | 3.33 | > 86.1 | 1.5 | 30.9 | 0.0944 | 0.16 |
| Cc1ccc(N=NC(C2=NC(=O)CS2)c2nc3ccccc3[nH]2)cc1 (stereo not drawn) | > 100 | > 100 | > 100 | > 100 | > 100 | > 100 | > 100 | > 100 | > 100 |  |
| Cc1ccc([N+](=O)[O-])cc1S(=O)(=O)Nc1ccc(C2=NOC(c3ccccc3O)C2)cc1 (stereo not drawn) | > 100 | > 100 | > 100 | 17.7 | 25.3 | > 100 | 30.8 | 98.9 | > 100 | 8.53 |
